Legend:
Format in all cases: in vivo
[1] = test system: wheat (Triticum aestivum); experiment: Postemergence herbicidal activity in cereal crops; settings: Triticum aestivum, post-emergence, 480 h, crop, post-emergent, after 20-22 days, read-out: % Control TRZAS; for plant injury at 17.5 g/ha: 17.5 g ai/ha; for plant injury at 35 g/ha: 35 g ai/ha
Procedure, shortened: (§1)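 Greenhouse plants at the second or third true leaf stage are sprayed postemergence by track sprayer delivering 187 L/ha. Spray solution is an acetone/water/isopropanol/DMSO mixture with crop oil concentrate and Triton X-77. Treated plants are kept at about 18 °C day/17 °C night under a ~14 h photoperiod with sub-irrigation; blank-sprayed plants serve as controls.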

[2] = test system: Lamium purpureum; experiment: Postemergence herbicidal activity in cereal crops; settings: Lamium purpureum, post-emergence, 480 h, post-emergent, after 20-22 days, read-out: % Control LAMPU; for pest or weed control at 17.5 g/ha: 17.5 g ai/ha; for pest or weed control at 35 g/ha: 35 g ai/ha
Procedure, shortened: as §1

[3] = test system: Papaver rhoeas; experiment: Postemergence herbicidal activity in cereal crops; settings: Papaver rhoeas, post-emergence, 480 h, post-emergent, after 20-22 days, read-out: % Control PAPRH; for pest or weed control at 17.5 g/ha: 17.5 g ai/ha; for pest or weed control at 35 g/ha: 35 g ai/ha
Procedure, shortened: as §1

[4] = test system: velvetleaf (Abutilon theophrasti); experiment: Preemergence herbicidal activity; settings: Abutilon theophrasti, pre-emergence, 480 h, pre-emergent, after 20-22 days, read-out: % Control ABUTH; for pest or weed control at 140 g/ha: 140 g ai/ha
Procedure, shortened: (§2)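 Seeds sown in 70:30 loam (pH about 8.1, about 1.5% organic matter) and sand mix, then sprayed preemergence at 187 L/ha with a track sprayer; controls received solvent blank. Pots kept in greenhouse, about 15 h photoperiod, about 23-29° C. day and 22-28° C. night, top-irrigated.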

[5] = test system: redroot pigweed (Amaranthus retroflexus); experiment: Preemergence herbicidal activity; settings: Amaranthus retroflexus, pre-emergence, 480 h, pre-emergent, after 20-22 days, read-out: % Control AMARE; for pest or weed control at 140 g/ha: 140 g ai/ha
Procedure, shortened: as §2

[6] = test system: lambsquarter (Chenopodium album); experiment: Preemergence herbicidal activity; settings: Chenopodium album, pre-emergence, 480 h, pre-emergent, after 20-22 days, read-out: % Control CHEAL; for pest or weed control at 140 g/ha: 140 g ai/ha
Procedure, shortened: as §2

[7] = test system: Echinochloa crus-galli; experiment: Herbicidal activity in transplanted paddy rice; settings: Echinochloa crus-galli, 504 h, paddy water application, after 3 weeks, read-out: % Control ECHCG; for pest or weed control at 17.5 g/ha: 17.5 g ai/ha; for pest or weed control at 70 g/ha: 70 g ai/ha
Procedure, shortened: (§3)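 Rice seedlings transplanted at second to third leaf stage and weeds from seed were grown in flooded mud pots in a greenhouse (~29/26 °C, 14 h photoperiod). At second or third true leaf stage, acetone stock solutions were injected into the paddy water at the high rate and ½× to 1/16× dilutions. Solvent-blank controls.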

[8] = test system: Monochoria vaginalis; experiment: Herbicidal activity in transplanted paddy rice; settings: Pontederia vaginalis, 504 h, paddy water application, after 3 weeks, read-out: % Control MOOVA; for pest or weed control at 17.5 g/ha: 17.5 g ai/ha; for pest or weed control at 70 g/ha: 70 g ai/ha
Procedure, shortened: as §3

[9] = test system: Cyperus difformis; experiment: Herbicidal activity in transplanted paddy rice; settings: Cyperus difformis, 504 h, paddy water application, after 3 weeks, read-out: % Control CYPDI; for pest or weed control at 17.5 g/ha: 17.5 g ai/ha; for pest or weed control at 70 g/ha: 70 g ai/ha
Procedure, shortened: as §3

[10] = test system: rice (Orysa sativa var. Japonica); experiment: Herbicidal activity in transplanted paddy rice; settings: Oryza sativa, 504 h, transplant rice (crop), paddy water application, after 3 weeks; for pest or weed control at 17.5 g/ha: 17.5 g ai/ha; for pest or weed control at 70 g/ha: 70 g ai/ha
Procedure, shortened: as §3

[11] = test system: Scirpus juncoides; experiment: Herbicidal activity in transplanted paddy rice; settings: Schoenoplectiella juncoides, 504 h, paddy water application, after 3 weeks, read-out: % Control SCPJU; for pest or weed control at 17.5 g/ha: 17.5 g ai/ha; for pest or weed control at 70 g/ha: 70 g ai/ha
Procedure, shortened: as §3

Structure (SMILES)	plant injury at 17.5 g/ha [1]	pest or weed control at 17.5 g/ha [2]	pest or weed control at 17.5 g/ha [3]	pest or weed control at 140 g/ha [4]	pest or weed control at 140 g/ha [5]	pest or weed control at 140 g/ha [6]	pest or weed control at 17.5 g/ha [7]	pest or weed control at 17.5 g/ha [8]	pest or weed control at 17.5 g/ha [9]	pest or weed control at 17.5 g/ha [10]	pest or weed control at 17.5 g/ha [11]	pest or weed control at 70 g/ha [7]	pest or weed control at 70 g/ha [8]	pest or weed control at 70 g/ha [9]	pest or weed control at 70 g/ha [10]	pest or weed control at 70 g/ha [11]	other results
COC(=O)c1nc(-c2ccc(Br)c(OC)c2F)cc(N)c1Cl [Compound 27, 4-amino-6-(4-bromo-2-fluoro-3-methoxyphenyl)-3-chloro-pyridine-2-carboxylic acid methyl ester]	5%	100%	100%	100%	100%	90%	45%	100%	100%	0%	99%	–	–	–	–	–	–
COC(=O)c1nc(-c2ccc(Cl)c(OC)c2F)cc(N)c1Cl [Compound 42, 4-Amino-3-chloro-6-(4-chloro-2-fluoro-3-methoxyphenyl)pyridine-2-carboxylic acid methyl ester]	5%	100%	99%	100%	100%	100%	40%	100%	100%	5%	90%	–	–	–	–	–	–
COC(=O)c1nc(-c2ccc(Cl)c(OC)c2Cl)cc(N)c1Cl [Compound 44, 4-Amino-3-chloro-6-(2,4-dichloro-3-methoxyphenyl)pyridine-2-carboxylic acid methyl ester]	–	–	–	95%	30%	95%	–	–	–	–	–	50%	90%	100%	0%	95%	plant injury at 35 g/ha [1]: 10%; pest or weed control at 35 g/ha [2]: 99%; pest or weed control at 35 g/ha [3]: 90%
COC(=O)c1nc(-c2c(F)cc(Cl)c(OC)c2F)cc(N)c1Cl [Compound 58, 4-Amino-3-chloro-6-(4-chloro-2,6-difluoro-3-methoxyphenyl)pyridine-2-carboxylic acid, methyl ester]	0%	100%	99%	100%	100%	100%	30%	100%	100%	0%	50%	–	–	–	–	–	–
COC(=O)c1nc(-c2ccc(F)c(OC)c2F)cc(N)c1Cl [Compound 70, 4-Amino-3-chloro-6-(2,4-difluoro-3-methoxyphenyl)pyridine-2-carboxylic acid, methyl ester]	0%	100%	99%	100%	100%	100%	–	–	–	–	–	45%	100%	95%	0%	95%	–
COC(=O)c1nc(-c2c(F)cc(Br)c(OC)c2F)cc(N)c1Cl [Compound 77, 4-Amino-6-(4-bromo-2,6-difluoro-3-methoxyphenyl)-3-chloropyridine-2-carboxylic acid, methyl ester]	0%	100%	99%	100%	100%	100%	–	–	–	–	–	–	–	–	–	–	pest or weed control at 35 g/ha ([7]; 35 g ai/ha): 70%; pest or weed control at 35 g/ha ([8]; 35 g ai/ha): 100%; pest or weed control at 35 g/ha ([9]; 35 g ai/ha): 100%; pest or weed control at 35 g/ha ([10]; 35 g ai/ha): 0%; pest or weed control at 35 g/ha ([11]; 35 g ai/ha): 99%
COc1c(Cl)ccc(-c2cc(N)c(Cl)c(C(=O)O)n2)c1F [Compound 100, 4-Amino-3-chloro-6-(4-chloro-2-fluoro-3-methoxyphenyl)pyridine-2-carboxylic acid]	10%	100%	95%	100%	100%	100%	30%	100%	100%	10%	80%	–	–	–	–	–	–
COc1c(Cl)ccc(-c2cc(N)c(Cl)c(C(=O)O)n2)c1Cl [Compound 103, 4-Amino-3-chloro-6-(2,4-dichloro-3-methoxyphenyl)pyridine-2-carboxylic acid]	–	–	–	–	–	–	–	–	–	–	–	40%	100%	100%	10%	95%	plant injury at 35 g/ha [1]: 0%; pest or weed control at 35 g/ha [2]: 95%; pest or weed control at 35 g/ha [3]: 100%; pest or weed control at 123 g/ha ([4]; 123 g ai/ha): 90%; pest or weed control at 123 g/ha ([5]; 123 g ai/ha): 100%; pest or weed control at 123 g/ha ([6]; 123 g ai/ha): 100%
